Experimental data: PubChem BioAssay (NCI)
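Values below derive from 48-hour exposures of cells grown in 96-well plates, with endpoints linearly interpolated between the two concentrations bracketing the appropriate inhibition level. The concentration for 50% growth inhibition is given as GI50. TGI is the concentration that stops growth completely.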

Columns and labels:
Experiment in all cases: growth of human tumour cells (NCI), 48 h
SK-OV-3 ovarian = system: SK-OV-3 ovarian
SN12C renal = system: SN12C renal
TK-10 renal = system: TK-10 renal
M14 melanoma = system: M14 melanoma
CAKI-1 renal = system: CAKI-1 renal
SW-620 colon = system: SW-620 colon
SK-MEL-5 melanoma = system: SK-MEL-5 melanoma
MALME-3M melanoma = system: MALME-3M melanoma
HCC-2998 colon = system: HCC-2998 colon
MDA-MB-435 = system: MDA-MB-435
NCI-H522 lung = system: NCI-H522 lung
SF-295 CNS = system: SF-295 CNS
SNB-75 CNS = system: SNB-75 CNS
UACC-257 melanoma = system: UACC-257 melanoma
HS 578T breast = system: HS 578T breast
SF-268 CNS = system: SF-268 CNS
OVCAR-8 ovarian = system: OVCAR-8 ovarian
MDA-MB-231 breast = system: MDA-MB-231 breast
SF-539 CNS = system: SF-539 CNS
PC-3 prostate = system: PC-3 prostate
NCI/ADR-RES ovarian = system: NCI/ADR-RES ovarian
CCRF-CEM leukemia = system: CCRF-CEM leukemia
HCT-116 colon = system: HCT-116 colon
OVCAR-5 ovarian = system: OVCAR-5 ovarian
OVCAR-4 ovarian = system: OVCAR-4 ovarian
HCT-15 colon = system: HCT-15 colon
HOP-92 NSCLC = system: HOP-92 NSCLC
HOP-62 NSCLC = system: HOP-62 NSCLC
UO-31 renal = system: UO-31 renal
RXF 393 renal = system: RXF 393 renal
MCF7 breast = system: MCF7 breast
K-562 leukemia = system: K-562 leukemia
SK-MEL-2 melanoma = system: SK-MEL-2 melanoma
LOX IMVI melanoma = system: LOX IMVI melanoma
SNB-19 CNS = system: SNB-19 CNS
SK-MEL-28 melanoma = system: SK-MEL-28 melanoma
ACHN renal = system: ACHN renal
T-47D breast = system: T-47D breast
786-0 renal = system: 786-0 renal
UACC-62 melanoma = system: UACC-62 melanoma
DU-145 prostate = system: DU-145 prostate
HL-60(TB) leukemia = system: HL-60(TB) leukemia
NCI-H460 lung = system: NCI-H460 lung
A498 renal = system: A498 renal
EKVX NSCLC = system: EKVX NSCLC
MOLT-4 leukemia = system: MOLT-4 leukemia
OVCAR-3 ovarian = system: OVCAR-3 ovarian
U251 CNS = system: U251 CNS
A549 NSCLC = system: A549 NSCLC
BT-549 breast = system: BT-549 breast
IGROV1 ovarian = system: IGROV1 ovarian
RPMI-8226 leukemia = system: RPMI-8226 leukemia
COLO 205 colon = system: COLO 205 colon
KM12 colon = system: KM12 colon
NCI-H23 lung = system: NCI-H23 lung
NCI-H226 lung = system: NCI-H226 lung
SR leukemia = system: SR leukemia
HT29 colon = system: HT29 colon

In the case of `CC1(C)CC(C)(C)c2cc(NC(=S)Nc3ccc([N+](=O)[O-])cc3)ccc2S1`, the GI50 (SK-OV-3 ovarian) is reported as 16.5 µM, the TGI (SK-OV-3 ovarian) is reported as 54.8 µM and the GI50 (SN12C renal) is reported as 10.3 µM. The TGI (SN12C renal) was 22.2 µM, the GI50 (TK-10 renal) was 10.3 µM and the TGI (TK-10 renal) was 24.8 µM. The GI50 (M14 melanoma) was 17.9 µM, the TGI (M14 melanoma) was over 53.9 µM and the GI50 (CAKI-1 renal) was 11.5 µM. For the same compound, the TGI (CAKI-1 renal) was 32.1 µM, the GI50 (SW-620 colon) was 15.6 µM and the TGI (SW-620 colon) was over 80.2 µM. The GI50 (SK-MEL-5 melanoma) was 9.23 µM, the TGI (SK-MEL-5 melanoma) was 19.1 µM and the GI50 (MALME-3M melanoma) was 2.62 µM. The TGI (MALME-3M melanoma) was 10.1 µM, the GI50 (HCC-2998 colon) was 4.42 µM and the TGI (HCC-2998 colon) was 24.6 µM. For the same compound, the GI50 (MDA-MB-435) was 11.8 µM, the TGI (MDA-MB-435) was 30.5 µM and the GI50 (NCI-H522 lung) was 9.63 µM. For the same compound, the TGI (NCI-H522 lung) was 22.1 µM, the GI50 (SF-295 CNS) was 10.8 µM and the TGI (SF-295 CNS) was 27.2 µM. For the same compound, the GI50 (SNB-75 CNS) was 16.7 µM, the TGI (SNB-75 CNS) was 48.7 µM and the GI50 (UACC-257 melanoma) was 13.6 µM. It also gave a TGI (UACC-257 melanoma) of 50.7 µM, a GI50 (HS 578T breast) of 24.2 µM and a TGI (HS 578T breast) of 58.3 µM. The GI50 (SF-268 CNS) was 26.5 µM, the TGI (SF-268 CNS) was over 53.7 µM and the GI50 (OVCAR-8 ovarian) was 16.6 µM. For the same compound, the TGI (OVCAR-8 ovarian) was 60.4 µM, the GI50 (MDA-MB-231 breast) was 10.8 µM and the TGI (MDA-MB-231 breast) was 22.6 µM. It also gave a GI50 (SF-539 CNS) of 10.8 µM, a TGI (SF-539 CNS) of 22.7 µM and a GI50 (PC-3 prostate) of 9.69 µM. For the same compound, the TGI (PC-3 prostate) was 22.4 µM, the GI50 (NCI/ADR-RES ovarian) was 13.9 µM and the TGI (NCI/ADR-RES ovarian) was 48.2 µM. For the same compound, the GI50 (CCRF-CEM leukemia) was 12.3 µM, the TGI (CCRF-CEM leukemia) was 41.1 µM and the GI50 (HCT-116 colon) was 14.9 µM. The TGI (HCT-116 colon) was over 100 µM, the GI50 (OVCAR-5 ovarian) was 14.2 µM and the TGI (OVCAR-5 ovarian) was 49.3 µM. It also gave a GI50 (OVCAR-4 ovarian) of 14.8 µM, a TGI (OVCAR-4 ovarian) of 60.4 µM and a GI50 (HCT-15 colon) of 12.6 µM. The TGI (HCT-15 colon) was 45.8 µM, the GI50 (HOP-92 NSCLC) was 19.1 µM and the TGI (HOP-92 NSCLC) was 36.5 µM. For the same compound, the GI50 (HOP-62 NSCLC) was 18.3 µM, the TGI (HOP-62 NSCLC) was over 49.5 µM and the GI50 (UO-31 renal) was 12.4 µM. The TGI (UO-31 renal) was 39.4 µM, the GI50 (RXF 393 renal) was 17.9 µM and the TGI (RXF 393 renal) was 51.8 µM. For the same compound, the GI50 (MCF7 breast) was 29.1 µM, the TGI (MCF7 breast) was over 82.1 µM and the GI50 (K-562 leukemia) was 10.8 µM. For the same compound, the TGI (K-562 leukemia) was over 60 µM, the GI50 (SK-MEL-2 melanoma) was 10.5 µM and the TGI (SK-MEL-2 melanoma) was 23.1 µM. For the same compound, the GI50 (LOX IMVI melanoma) was 12.4 µM, the TGI (LOX IMVI melanoma) was 31.9 µM and the GI50 (SNB-19 CNS) was 21 µM. For the same compound, the TGI (SNB-19 CNS) was over 76.1 µM, the GI50 (SK-MEL-28 melanoma) was 17.2 µM and the TGI (SK-MEL-28 melanoma) was 68.5 µM. The GI50 (ACHN renal) was 10.1 µM, the TGI (ACHN renal) was 24.6 µM and the GI50 (T-47D breast) was 17.1 µM. The TGI (T-47D breast) was over 52.6 µM, the GI50 (786-0 renal) was 17 µM and the TGI (786-0 renal) was over 55.5 µM. For the same compound, the GI50 (UACC-62 melanoma) was 10.9 µM, the TGI (UACC-62 melanoma) was 25 µM and the GI50 (DU-145 prostate) was 13.1 µM. For the same compound, the TGI (DU-145 prostate) was 34.6 µM, the GI50 (HL-60(TB) leukemia) was 30.2 µM and the TGI (HL-60(TB) leukemia) was over 85.3 µM. It also gave a GI50 (NCI-H460 lung) of 27.6 µM, a TGI (NCI-H460 lung) of over 69.3 µM and a GI50 (A498 renal) of 9.16 µM. It also gave a TGI (A498 renal) of 19.1 µM, a GI50 (EKVX NSCLC) of 12.7 µM and a TGI (EKVX NSCLC) of 29.7 µM. The GI50 (MOLT-4 leukemia) was 19.1 µM, the TGI (MOLT-4 leukemia) was over 100 µM and the GI50 (OVCAR-3 ovarian) was 9.75 µM. For the same compound, the TGI (OVCAR-3 ovarian) was 31.2 µM, the GI50 (U251 CNS) was 11.1 µM and the TGI (U251 CNS) was 29.4 µM. It also gave a GI50 (A549 NSCLC) of 12.3 µM, a TGI (A549 NSCLC) of 52.7 µM and a GI50 (BT-549 breast) of 13.2 µM. It also gave a TGI (BT-549 breast) of 28.2 µM, a GI50 (IGROV1 ovarian) of 10.5 µM and a TGI (IGROV1 ovarian) of 29 µM. It also gave a GI50 (RPMI-8226 leukemia) of 31 µM, a TGI (RPMI-8226 leukemia) of 99.8 µM and a GI50 (COLO 205 colon) of 13 µM. The TGI (COLO 205 colon) was 59.4 µM, the GI50 (KM12 colon) was 10.9 µM and the TGI (KM12 colon) was 34.8 µM. It also gave a GI50 (NCI-H23 lung) of 12.2 µM, a TGI (NCI-H23 lung) of 50.2 µM and a GI50 (NCI-H226 lung) of 14.3 µM. The TGI (NCI-H226 lung) was 38.5 µM, the GI50 (SR leukemia) was 12.9 µM and the TGI (SR leukemia) was over 88.2 µM. The GI50 (HT29 colon) was 24.1 µM and the TGI (HT29 colon) was over 100 µM.
